Laboratory results from patent US9662339B2, “Benzodioxane inhibitors of leukotriene production for combination therapy” (Boehringer Ingelheim International GmbH, priority 2012, dated 2017).

Biological target: human LTA4 hydrolase (Homo sapiens (Human), UniProt P09960)
Assay: LTA4H Enzyme assay (cleavage of Arg-AMC, fluorescence)
Format: biochemical
Settings: LTA4H Enzyme 1 nM, Arg-AMC substrate 50 μM, room temperature 1 h
Description: The compounds of the invention are assessed for the ability to interact with human LTA4 hydrolase in an enzymatic assay that measures the ability of the enzyme to cleave the peptide bond of arginyl-aminomethylcoumarin (Arg-AMC). LTA4H Enzyme (1 nM final), Arg-AMC substrate (50 μM final), and compound are combined in a reaction buffer (50 mM Tris-HCl (pH 7.5), 100 mM KCl, 0.5% bovine serum albumin) at room temperature for 1 h. The formation of product is assessed by measuring the fluorescence of aminomethylcoumarin product (excitation wavelength 380 nm/emission wavelength 460 nm).

Sequence of human LTA4 hydrolase (P09960 whole entry): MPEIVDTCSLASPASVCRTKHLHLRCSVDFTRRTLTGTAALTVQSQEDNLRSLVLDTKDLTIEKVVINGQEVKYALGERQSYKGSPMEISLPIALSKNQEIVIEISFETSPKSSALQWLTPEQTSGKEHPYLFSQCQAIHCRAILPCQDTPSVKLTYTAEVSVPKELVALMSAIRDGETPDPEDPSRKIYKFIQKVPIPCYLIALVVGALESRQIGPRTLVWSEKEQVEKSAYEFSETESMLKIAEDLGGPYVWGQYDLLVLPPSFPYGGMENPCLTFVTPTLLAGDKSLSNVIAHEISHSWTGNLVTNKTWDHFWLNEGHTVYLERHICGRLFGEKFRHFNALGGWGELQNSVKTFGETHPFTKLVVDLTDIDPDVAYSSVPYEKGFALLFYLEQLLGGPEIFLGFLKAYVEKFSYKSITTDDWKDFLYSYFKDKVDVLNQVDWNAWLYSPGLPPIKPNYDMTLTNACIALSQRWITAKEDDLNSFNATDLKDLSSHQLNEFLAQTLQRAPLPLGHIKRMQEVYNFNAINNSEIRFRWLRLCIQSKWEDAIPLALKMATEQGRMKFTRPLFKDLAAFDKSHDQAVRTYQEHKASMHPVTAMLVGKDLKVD

Compound	IC50 [nM]
c1ccc2c(c1)OCC(c1ccc(CN3CCCC3)cc1)O2 (racemic) [Example 1, 1-[4-(2,3-dihydro-1,4-benzodioxin-2-yl)benzyl]pyrrolidine]	0.38
O[C@H]1CCN(Cc2ccc(C3COc4ccccc4O3)cc2)C1 (mixture of isomers) [Example 9, (3S)-1-[4-(2,3-dihydro-1,4-benzodioxin-2-yl)benzyl]pyrrolidin-3-ol]	1.49
O=C1CCCN1CC1CCCN(Cc2ccc(C3COc4ccccc4O3)cc2)C1 (racemic) [Example 10, 1-({1-[4-(2,3-dihydro-1,4-benzodioxin-2-yl)benzyl]piperidin-3-yl}methyl)pyrrolidin-2-one]	0.75
c1cnc2c(c1)OCC(c1ccc(CN3CCCC3)cc1)O2 (racemic) [Example 15, 3-[4-(pyrrolidin-1-ylmethyl)phenyl]-2,3-dihydro[1,4]dioxino[2,3-b]pyridine]	0.36
c1ccc2c(c1)OCC(c1ccc(CN3CCn4cnnc4C3)cc1)O2 (racemic) [Example 16, 7-[4-(2,3-dihydro-1,4-benzodioxin-2-yl)benzyl]-5,6,7,8-tetrahydro[1,2,4]triazolo[4,3-a]pyrazine]	2.32
O=S1(=O)CCN(Cc2ccc(C3COc4cccnc4O3)cc2)CC1 (racemic) [Example 17, 3-{4-[(1,1-dioxidothiomorpholin-4-yl)methyl]phenyl}-2,3-dihydro[1,4]dioxino[2,3-b]pyridine]	0.77
c1cnc2c(c1)OCC(c1ccc(CN3CCOCC3)cc1)O2 (racemic) [Example 18, 3-[4-(morpholin-4-ylmethyl)phenyl]-2,3-dihydro[1,4]dioxino[2,3-b]pyridine]	1.14
CNC(=O)C1CCN(Cc2ccc(C3COc4ccccc4O3)cc2)CC1 (racemic) [Example 25, 1-[4-(2,3-Dihydro-benzo[1,4]dioxin-2-yl)-benzyl]-piperidine-4-carboxylic acid methylamide]	0.76
O=C(O)CCCC1CCN(Cc2ccc(C3COc4ccccc4O3)cc2)CC1 (racemic) [Example 26, 4-{1-[4-(2,3-dihydro-1,4-benzodioxin-2-yl)benzyl]piperidin-4-yl}butanoic acid]	0.43
c1ccc2c(c1)OCC(c1ccc(CN3CCOCC3)cc1)O2 (centres unmarked) [Example 2, 4-[4-(2,3-dihydro-1,4-benzodioxin-2-yl)benzyl]morpholine]	2.45
CC1(C)CCN(Cc2ccc(C3COc4ccccc4O3)cc2)CC1 (centres unmarked) [Example 3, 1-[4-(2,3-dihydro-1,4-benzodioxin-2-yl)benzyl]-4,4-dimethylpiperidine]	2.57
O=C1NCCC12CCN(Cc1ccc(C3COc4ccccc4O3)cc1)CC2 (centres unmarked) [Example 4, 8-[4-(2,3-dihydro-1,4-benzodioxin-2-yl)benzyl]-2,8-diazaspiro[4.5]decan-1-one]	0.74
FC1CCN(Cc2ccc(C3COc4ccccc4O3)cc2)CC1 (centres unmarked) [Example 5, 1-[4-(2,3-dihydro-1,4-benzodioxin-2-yl)benzyl]-4-fluoropiperidine]	2.96
O=S1(=O)CCN(Cc2ccc(C3COc4ccccc4O3)cc2)CC1 (centres unmarked) [Example 7, 4-[4-(2,3-dihydro-1,4-benzodioxin-2-yl)benzyl]thiomorpholine 1,1-dioxide]	2.79
CC(=O)N1CCN(Cc2ccc(C3COc4ccccc4O3)cc2)CC1 (centres unmarked) [Example 11, 1-{4-[4-(2,3-dihydro-1,4-benzodioxin-2-yl)benzyl]piperazin-1-yl}ethanone]	2.95
O=C(CNCc1ccc(C2COc3ccccc3O2)cc1)N1CCCC1 (centres unmarked) [Example 12, 2-{[4-(2,3-dihydro-1,4-benzodioxin-2-yl)benzyl]amino}-1-(pyrrolidin-1-yl)ethanone]	10.2
CC(C)(C)NCc1ccc(C2COc3ccccc3O2)cc1 (centres unmarked) [Example 23, N-[4-(2,3-dihydro-1,4-benzodioxin-2-yl)benzyl]-2-methylpropan-2-amine]	5.2
CC[C@@H](C)NCc1ccc(C2COc3ccccc3O2)cc1 (stereo partly drawn) [Example 24, (2R)-N-[4-(2,3-dihydro-1,4-benzodioxin-2-yl)benzyl]butan-2-amine]	5.9
OCC1CCN(Cc2ccc(C3COc4ccccc4O3)cc2)CC1 (centres unmarked) [Example 27, {1-[4-(2,3-dihydro-1,4-benzodioxin-2-yl)benzyl]piperidin-4-yl}methanol]	1.2
CC(C)(O)C1CCN(Cc2ccc(C3COc4ccccc4O3)cc2)CC1 (centres unmarked) [Example 28, 2-{1-[4-(2,3-dihydro-1,4-benzodioxin-2-yl)benzyl]piperidin-4-yl}propan-2-ol]	3.4
OCCCC1CCN(Cc2ccc(C3COc4ccccc4O3)cc2)CC1 (centres unmarked) [Example 29, 3-{1-[4-(2,3-dihydro-1,4-benzodioxin-2-yl)benzyl]piperidin-4-yl}propan-1-ol]	2.04

The next lines start with the values.

IC50 [nM]	Compound
1.05	O=C(C1CCN(Cc2ccc(C3COc4ccccc4O3)cc2)CC1)N1CCOCC1 (racemic) [Example 37, {1-[4-(2,3-dihydro-1,4-benzodioxin-2-yl)benzyl]piperidin-4-yl}(morpholin-4-yl)methanone]
0.75	O=C(NCCO)C1CCN(Cc2ccc(C3COc4ccccc4O3)cc2)CC1 (racemic) [Example 52, 1-[4-(2,3-dihydro-1,4-benzodioxin-2-yl)benzyl]-N-(2-hydroxyethyl)piperidine-4-carboxamide]
0.42	NC(=O)NC1CCN(Cc2ccc(C3COc4ccccc4O3)cc2)CC1 (racemic) [Example 53, 1-{1-[4-(2,3-dihydro-1,4-benzodioxin-2-yl)benzyl]piperidin-4-yl}urea]
3.63	Cn1cnc(CNCc2ccc(C3COc4ccccc4O3)cc2)c1 (racemic) [Example 55, 1-[4-(2,3-dihydro-1,4-benzodioxin-2-yl)phenyl]-N-[(1-methyl-1H-imidazol-4-yl)methyl]methanamine]
1.77	CN1CCCN(Cc2ccc(C3COc4ccccc4O3)cc2)CC1 (centres unmarked) [Example 30, 1-[4-(2,3-dihydro-1,4-benzodioxin-2-yl)benzyl]-4-methyl-1,4-diazepane]
1.54	CC(=O)N1CCCN(Cc2ccc(C3COc4ccccc4O3)cc2)CC1 (centres unmarked) [Example 31, 1-{4-[4-(2,3-dihydro-1,4-benzodioxin-2-yl)benzyl]-1,4-diazepan-1-yl}ethanone]
1.8	c1ccc2c(c1)OCC(c1ccc(CN3CCCOCC3)cc1)O2 (centres unmarked) [Example 32, 4-[4-(2,3-dihydro-1,4-benzodioxin-2-yl)benzyl]-1,4-oxazepane]
3.19	COCCN(C)Cc1ccc(C2COc3ccccc3O2)cc1 (centres unmarked) [Example 33, N-[4-(2,3-dihydro-1,4-benzodioxin-2-yl)benzyl]-2-methoxy-N-methylethanamine]
1.89	O[C@@H]1CCN(Cc2ccc(C3COc4ccccc4O3)cc2)C1 (stereo partly drawn) [Example 34, (3R)-1-[4-(2,3-dihydro-1,4-benzodioxin-2-yl)benzyl]pyrrolidin-3-ol]
0.26	O=C1NC(=O)C2(CCN(Cc3ccc(C4COc5ccccc5O4)cc3)CC2)N1 (centres unmarked) [Example 35, 8-[4-(2,3-dihydro-1,4-benzodioxin-2-yl)benzyl]-1,3,8-triazaspiro[4.5]decane-2,4-dione]
4.45	COC1CN(Cc2ccc(C3COc4ccccc4O3)cc2)C1 (centres unmarked) [Example 36, 1-[4-(2,3-dihydro-1,4-benzodioxin-2-yl)benzyl]-3-methoxyazetidine]
1.14	CN(C)C(=O)CC1CCN(Cc2ccc(C3COc4ccccc4O3)cc2)CC1 (centres unmarked) [Example 38, 2-{1-[4-(2,3-dihydro-1,4-benzodioxin-2-yl)benzyl]piperidin-4-yl}-N,N-dimethylacetamide]
2.14	CS(=O)(=O)C1CCN(Cc2ccc(C3COc4ccccc4O3)cc2)CC1 (centres unmarked) [Example 39, 1-[4-(2,3-dihydro-1,4-benzodioxin-2-yl)benzyl]-4-(methylsulfonyl)piperidine]
0.82	c1ccc2c(c1)OCC(c1ccc(CN3CCCCCC3)cc1)O2 (centres unmarked) [Example 40, 1-[4-(2,3-dihydro-1,4-benzodioxin-2-yl)benzyl]azepane]
3.71	c1ccc2c(c1)OCC(c1ccc(CNC3CCCC3)cc1)O2 (centres unmarked) [Example 41, N-[4-(2,3-dihydro-1,4-benzodioxin-2-yl)benzyl]cyclopentanamine]
0.69	CN(CCc1ccccn1)Cc1ccc(C2COc3ccccc3O2)cc1 (centres unmarked) [Example 42, N-[4-(2,3-dihydro-1,4-benzodioxin-2-yl)benzyl]-N-methyl-2-(pyridin-2-yl)ethanamine]
4.42	c1ccc2c(c1)OCC(c1ccc(CNCC3CC3)cc1)O2 (centres unmarked) [Example 43, 1-cyclopropyl-N-[4-(2,3-dihydro-1,4-benzodioxin-2-yl)benzyl]methanamine]
0.9	CCN(CC)Cc1ccc(C2COc3ccccc3O2)cc1 (centres unmarked) [Example 45, N-[4-(2,3-dihydro-1,4-benzodioxin-2-yl)benzyl]-N-ethylethanamine]
24.8	N#CC1CN(Cc2ccc(C3COc4ccccc4O3)cc2)C1 (centres unmarked) [Example 46, 1-[4-(2,3-dihydro-1,4-benzodioxin-2-yl)benzyl]azetidine-3-carbonitrile]
1.73	COC1CCN(Cc2ccc(C3COc4ccccc4O3)cc2)C1 (centres unmarked) [Example 47, 1-[4-(2,3-dihydro-1,4-benzodioxin-2-yl)benzyl]-3-methoxypyrrolidine]
0.16	CS(=O)(=O)NC1CCN(Cc2ccc(C3COc4ccccc4O3)cc2)CC1 (stereo not drawn) [Example 48, N-{l-[4-(2,3-dihydro-1,4-benzodioxin-2-yl)benzyl]piperidin-4-yl}methanesulfonamide]
0.6	O=C1CCCN1CC1CCN(Cc2ccc(C3COc4ccccc4O3)cc2)CC1 (centres unmarked) [Example 50, 1-({1-[4-(2,3-dihydro-1,4-benzodioxin-2-yl)benzyl]piperidin-4-yl}methyl)pyrrolidin-2-one]
0.82	CN(C)C(=O)C1CCN(Cc2ccc(C3COc4ccccc4O3)cc2)CC1 (centres unmarked) [Example 51, 1-[4-(2,3-dihydro-1,4-benzodioxin-2-yl)benzyl]-N,N-dimethylpiperidine-4-carboxamide]
